In one data set the test system is protein synthesis. As to the kind of experiment: Assessment of translation rates (35S-methionine labelling). The data set is classed as cell-based. The conditions noted are these: for Effect on translation: 35S-methionine labelling of cells; for Effect on translation ⇒ Inhibits: target(s) concluded to be inhibited; for protein synthesis rates: unstressed cells, 10 μM, FIG. 12. As to the method: Cells (90,000 cells/ml) were plated in 12-well plates, treated as indicated, labelled with 100 μCi/mI 35S-methionine (Hartmann Analytic) for 10 minutes at 37° C., washed with ice-cold PBS and lysed in 120 μl Laemmli Buffer. Lysates were boiled at 95° C. for 5 minutes, sonicated and resolved on 4-12% Bolt Bis-Tris Plus Gels (Thermo Fisher Scientific). Gels were then stained with InstantBlue (Expedeon) and analyzed by phosphorimaging and quantified using ImageJ.
By monitoring translation rates as described above, the activities of R15A, R15B and R15A/B inhibitors can be defined as follows (also shown in FIG. 12). An R15A inhibitor has no effect on translation in unstressed cells but prolongs translation attenuation following stress. A selective R15B inhibitor transiently attenuate protein synthesis because R15A compensates for the inhibition of R15B.

Data set [1] concerns eIF2α phosphorylation. Briefly: Assay 2: eIF2α phosphorylation in cells in the absence of stress. The data set is classed as cell-based. Particulars: human cells. As to the method:
(§1) HeLa cells were cultured in Dulbecco's Modified Eagle's Media (DMEM) supplemented with penicillin, streptomycin, containing 5% and 10% fetal bovine serum (FBS), respectively. MEF cells were cultured in DMEM supplemented with penicillin, streptomycin, glutamine, 55 μM β-mercaptoethanol, 1× non-essential amino acids (Sigma-Adrich) and 10% FBS. Where indicated, cells were treated with 2.5 μg/ml tunicamycin, 1 mM DTT (Sigma-Adrich) and or the indicated compounds at the indicated concentrations.
(§2) For immunoblots, HeLa cells (80,000 cells/ml) were plated in 12-well plates 24 hours before each experiment. Immediately after the indicated treatments, cells were lysed in 75 μl Laemmli Buffer, boiled at 95° C. for 5 minutes and sonicated. Proteins were separated and analysed as described (Tsaytler et al., Science, 332, 91-94, 2011) with the following antibodies: phospho-elf2α [pS52] and PPP1R15A/GADD34 (10449-1-AP; ProteinTech Group, 1/1000 dilution) and ATF4 (Sc-200 Santa Cruz).
Human cells were treated with a PPP1R15B inhibitor and eIF2α phosphorylation was monitored over time. […] This was manifested between 1 and 7.5 hours after addition of the compound of Example 1. […] Indeed, the inventors noticed that PPP1R15A was induced at the late time points following addition of the compound of Example 1 (see Assay 3). […] Furthermore, this establishes that the compound of Example 1 spares PPP1R15A. […]

The next data set has as its system HeLa cells. As to the kind of experiment: Assay 4: protection of cells from tunicamycin stress (WST-8). The class given is cell-based, human. Particulars: Tunicamycin 2.5 μg/ml, 0.2-5 μM compound, 3 days. As to the method: Cells were plated in 24-well plates at a density of 15,000 (HeLa) or 12,000 cells/ml (MEFs) 24 hours prior to treatment. ER stress was elicited by addition of fresh media containing 2.5 μg/ml tunicamycin (Sigma-Aldrich). Compounds of Example 1 were dissolved in DMSO and added as indicated. DMSO was used as a mock treatment. Cell viability was assessed by measuring the reduction of WST-8 [2-(2-methoxy-4-nitrophenyl)-3-(4-nitrophenyl)-5-(2,4-disulfophenyl)-2H-tetrazolium] into formazan using Cell viability Counting Kit-8 (Dojindo) according to the supplier's recommendation, […] after tunicamycin treatment.
Cells where stressed with Tunicamycin (2.5 μg/ml) in the presence of 0.2-5 μM of a compound of Example 1. Cell viability was measured 3 days after treatment.
Cytoprotection against ER stress can be measured by a suitable assay. In this instance, cytoprotection was measured in HeLa cells in which ER stress was elicited by the addition of media containing tunicamycin, a drug that blocks N-glycosylation, thereby preventing protein folding and inducing the unfolded protein response. Cell viability was then detected in the presence and absence of a compound of Example 1 after a set period of time, by measuring the reduction of WST-8 into formazan using the standard cell viability kit Cell Viability Counting Kit-8 from Dojindo. […]

Data set [2] concerns eIF2α phosphorylation. As to the kind of experiment: Assay 5: eIF2α phosphorylation during stress-recovery (DTT wash out). Particulars: 30 minute 1 mM DTT and wash out, before R15A is expressed. The class given is cell-based. As to the method: as §1, §2
The inventors reasoned that a PPP1R15B inhibitor should prolong eIF2α phosphorylation following stress. […] The inventors took advantage of the fast kinetic and reversibility of stress induction by DTT (Bertolotti et al., Nat. Cell. Biol., 2, 326-332, 2000; Jousse et al., 2003) and monitored eIF2α phosphorylation in cells following a 30 minute treatment with 1 mM DTT and a wash out. […]

Data set [3] in a line: Tissue distribution in mice after oral gavage. Particulars: plasma, brain, spinal cord, pancreas, liver. The data set is classed as in vivo.
For the next data set, the system named is PPP1R15A. As to the kind of experiment: Assay 6: PPP1R15A induction in mouse brain (qPCR). The data set is classed as in vivo. Particulars: mice, dose-dependent. As to the method:
RNA from brain was extracted in trizol (Life Technologies). RNA concentration was measured using a NANODROP1000 spectrophotometer (Thermo Fisher Scientific), and 1 μg was reverse transcribed to cDNA using a SuperScript reverse transcriptase (Life Technologies). Quantitative PCR with primers GAPDH (f): […], GAPDH (r): […], PPP1R15A (f): […]; and PPP1R15A (r): […] was performed using SYBR® Select Master Mix (Ref 4472908, applied biosystems) on a Corbett Rotor-Gene version 6000. Expression of each gene was normalized to the housekeeping gene GAPDH and expressed as fold change calculated using Paffl equation.
PPP1R15A induction was assessed by qPCR on total mRNA extracted from brains of mice treated with the indicated doses of compound of Example 1.
This explains why a selective PPP1R15B inhibitor is tolerated in mice: PPP1R15A induction dephosphorylates eIF2α, ensuring that the eIF2α phosphorylation which results from PPP1R15B inhibition by a compound of Example 1 is only transient. This is important because a persistent phosphorylation of eIF2α is detrimental. The induction of PPP1R15A in vivo by a PPP1R15B inhibitor is a pharmacodynamic parameter that can be used to evaluate the efficacy and potency of PPP1R15B inhibitors in mammals in pre-clinical or clinical studies.
A general note: Real-time PCR tracks product formation cycle by cycle.

From US11154519B2, “Inhibitors and their uses” (MEDICAL RESEARCH COUNCIL, priority 2015, dated 2021) come the findings set out here.

`N=C(N)N/N=C/c1cc(Cl)c(Cl)c(Cl)c1` [Compound 3, (E)-2-(3,4,5-trichlorobenzylidene)hydrazine-1-carboximidamide]: the Effect on translation result with protein synthesis is “Persistent”.

For `[H]/N=C(\N)NN=Cc1ccc(Cl)c(Cl)c1Cl` [Compound 6, (E)-2-(2,3,4-trichlorobenzylidene)hydrazine-1-carboximidamide], the Effect on translation entry with protein synthesis is given as “Persistent”.

For `[H]/N=C(\N)NN=Cc1cc(F)c(Cl)cc1Cl` [Compound 7, (E)-2-(2,4-dichloro-5-fluorobenzylidene)hydrazine-1-carboximidamide], the “Effect on translation ⇒ Inhibits” value in the data set on protein synthesis was “R15AB”.

`[H]/N=C(\N)NN=Cc1ccc(Cl)c(F)c1` [Compound 8, (E)-2-(4-chloro-3-fluorobenzylidene)hydrazine-1-carboximidamide]: the “Effect on translation ⇒ Inhibits” value in the data set with protein synthesis is “R15AB”.

As for `[H]/N=C(\N)NN=Cc1cccc(Cl)c1Br` [Compound 9, (E)-2-(2-bromo-3-chlorobenzylidene)hydrazine-1-carboximidamide], the “Effect on translation ⇒ Inhibits” value in the data set with protein synthesis is on record as “Off”.

Consider `[H]/N=C(\N)NN=Cc1cc(Cl)cc(Cl)c1Cl` [Compound 10, (E)-2-(2,3,5-trichlorobenzylidene)hydrazine-1-carboximidamide], for which, in the data set on protein synthesis, the Effect on translation result is recorded as “Persistent” and the protein synthesis rates entry is recorded as “persistently inhibits protein synthesis”.

On to `[H]/N=C(\N)NN=Cc1ccc(Cl)c(Cl)c1` [Compound 11, (E)-2-(3,4-dichlorobenzylidene)hydrazine-1-carboximidamide], for which the “Effect on translation ⇒ Inhibits” value in the data set with protein synthesis is listed as “R15AB”.

On to `[H]/N=C(\N)NN=Cc1ccc(Cl)c(F)c1Cl` [Compound 13, (E)-2-(2,4-dichloro-3-fluorobenzylidene)hydrazine-1-carboximidamide], for which, in the data set on protein synthesis, the Effect on translation entry is given as “Persistent” and the “Effect on translation ⇒ Inhibits” value is given as “R15AB”.

With `[H]/N=C(\N)NN=Cc1ccc(F)c(Cl)c1Cl` [Compound 14, (E)-2-(2,3-dichloro-4-fluorobenzylidene)hydrazine-1-carboximidamide], the Effect on translation entry with protein synthesis is on record as “Persistent”.

As for `[H]/N=C(\N)NN=Cc1cccc(Cl)c1Cl` [Compound 16, (E)-2-(2,3-dichlorobenzylidene)hydrazine-1-carboximidamide], in the data set with protein synthesis, the Effect on translation result is given as “Transient” and the protein synthesis rates entry is listed as “transiently inhibits protein synthesis in unstressed cells”. For the same compound, the eIF2α phosphorylation entry in the data set with eIF2α phosphorylation [1] (10 hours after addition) is on record as “returned to basal levels”. Further, the eIF2α phosphorylation entry with eIF2α phosphorylation [1] (between 1 and 7.5 hours after addition) is recorded as “induced eIF2α phosphorylation”. Also, in the data set on HeLa cells, the “protection of cells from stress (cell viability)” value is reported as “protects cells from cytotoxic stress caused by tunicamycin”. Moreover, the “eIF2α phosphorylation following stress” value with eIF2α phosphorylation [2] is “prolongs eIF2⊐ phosphorylation following stress”. Besides, the tissue distribution result in data set [3] was “extensive tissue distribution”. In the data set on PPP1R15A, the “PPP1R15A induction (mRNA, brain)” value is given as “induced PPP1R15A”.

Take `[H]/N=C(\N)NN=Cc1ccccc1F` [Compound 17, (E)-2-(2-fluorobenzylidene)hydrazine-1-carboximidamide]: in the data set on protein synthesis, the Effect on translation result is listed as “(No)”.

For the compound `[H]/N=C(\N)NN=Cc1cc(F)ccc1Cl` [Compound 20, (E)-2-(2-chloro-5-fluorobenzylidene)hydrazine-1-carboximidamide], in the data set with protein synthesis, the “Effect on translation ⇒ Inhibits” value is on record as “R15AB”.

Turning to `[H]/N=C(\N)NN=Cc1cccnc1Cl` [Compound 21, (E)-2-((2-chloropyridin-3-yl)methylene)hydrazine-1-carboximidamide], the Effect on translation result with protein synthesis is recorded as “Transient”.

Consider `[H]/N=C(\N)NN=Cc1ccc(Cl)nc1Cl` [Compound 22, (E)-2-((2,6-dichloropyridin-3-yl)methylene)hydrazine-1-carboximidamide], for which, in the data set with protein synthesis, the “Effect on translation ⇒ Inhibits” value is “R15AB”.

Regarding `[H]/N=C(\N)NN=Cc1cccc(F)c1` [Compound 23, (E)-2-(3-fluorobenzylidene)hydrazine-1-carboximidamide], the “Effect on translation ⇒ Inhibits” value with protein synthesis was “R15AB”.

Take `[H]/N=C(\N)NN=Cc1cccc(Cl)c1` [Compound 24, (E)-2-(3-chlorobenzylidene)hydrazine-1-carboximidamide]: the “Effect on translation ⇒ Inhibits” value in the data set on protein synthesis is reported as “R15AB”.

For `[H]/N=C(\N)NN=Cc1cc(Cl)ccc1Cl` [Compound 26, (E)-2-(2,5-dichlorobenzylidene)hydrazine-1-carboximidamide], the “Effect on translation ⇒ Inhibits” value with protein synthesis is given as “R15AB”.

`[H]/N=C(\N)NN=Cc1cc(F)cc(F)c1Cl` [Compound 29, (E)-2-(2-chloro-3,5-difluorobenzylidene)hydrazine-1-carboximidamide]: the “Effect on translation ⇒ Inhibits” value in the data set with protein synthesis was “R15AB”.

On to `[H]/N=C(\N)NN=Cc1cccc(Cl)c1F` [Compound 30, (E)-2-(3-chloro-2-fluorobenzylidene)hydrazine-1-carboximidamide], for which the Effect on translation result with protein synthesis is recorded as “No”.

For `[H]/N=C(\N)NN=Cc1c(Cl)ccc(Cl)c1Cl` [Compound 31, (E)-2-(2,3,6-trichlorobenzylidene)hydrazine-1-carboximidamide], the Effect on translation result in the data set with protein synthesis was “No”.

`[H]/N=C(\N)NN=Cc1cc(Cl)cc(Cl)c1` [Compound 34, (E)-2-(3,5-dichlorobenzylidene)hydrazine-1-carboximidamide]: in the data set on protein synthesis, the “Effect on translation ⇒ Inhibits” value is recorded as “R15AB”.
